ChEMBL document CHEMBL1132169 (J Med Chem, 1999)

Experiments:
[1] = target: Sodium-dependent dopamine transporter (Rattus norvegicus) (UniProt P23977); test: Discrimination ratio of compound is the ratio of inhibitory activity against [3H]dopamine uptake over [3H][…] binding
[2] = target: T1, Sodium-dependent dopamine transporter (Rattus norvegicus, UniProt P23977); test: Inhibitory binding activity against rat striatal tissue using [3H][…] as the radioligand.; format: tissue-based, Striatum
[3] = target: T1, Sodium-dependent dopamine transporter; test: Inhibition of dopamine uptake into rat striatal tissue, using [3H]- dopamine as the radioligand.; format: tissue-based, Striatum

Chain of Sodium-dependent dopamine transporter (Rattus norvegicus) (P23977 whole entry): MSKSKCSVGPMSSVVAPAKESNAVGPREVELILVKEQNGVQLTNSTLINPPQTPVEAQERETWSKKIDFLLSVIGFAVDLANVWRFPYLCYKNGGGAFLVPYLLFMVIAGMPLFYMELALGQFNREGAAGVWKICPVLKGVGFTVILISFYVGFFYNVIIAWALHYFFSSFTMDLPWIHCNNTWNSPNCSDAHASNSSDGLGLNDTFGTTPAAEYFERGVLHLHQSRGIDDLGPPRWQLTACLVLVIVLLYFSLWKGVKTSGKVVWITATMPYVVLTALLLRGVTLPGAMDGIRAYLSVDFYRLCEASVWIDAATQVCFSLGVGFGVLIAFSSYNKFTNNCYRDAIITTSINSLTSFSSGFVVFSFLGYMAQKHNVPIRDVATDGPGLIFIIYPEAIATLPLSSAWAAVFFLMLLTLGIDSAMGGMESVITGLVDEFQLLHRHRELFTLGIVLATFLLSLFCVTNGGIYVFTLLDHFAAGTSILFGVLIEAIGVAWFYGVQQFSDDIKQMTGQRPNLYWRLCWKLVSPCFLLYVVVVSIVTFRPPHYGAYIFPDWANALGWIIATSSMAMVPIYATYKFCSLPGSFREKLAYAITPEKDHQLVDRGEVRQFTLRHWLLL
T1 sequence (P23977 whole entry): as above

SMILES	Discrimination ratio [1]	IC50 [2]	IC50 [3]
COc1ccc(C2C3CCC(CC3)C2CN(C)C)cc1 (stereo not given)	3.8	380 nM	1430 nM
COc1ccc(C2C3CCC(CC3)C2CN)cc1 (stereo not given)	6	249 nM	1500 nM
NCC1C2CCC(CC2)C1c1ccc(N)cc1 (stereo not given)	4.4	160 nM	704 nM
NCC1C2CCC(CC2)C1c1ccccc1 (stereo in doubt; 5a) [listing 1 of 2 here]		1200 nM	5930 nM
NCC1C2CCC(CC2)C1c1ccccc1 (stereo in doubt; 5a) [listing 2 of 2 here]	5		
NCC1C2CCC(CC2)C1c1cccc(Cl)c1 (stereo in doubt; 5b) [listing 1 of 2 here]		204 nM	960 nM
NCC1C2CCC(CC2)C1c1cccc(Cl)c1 (stereo in doubt; 5b) [listing 2 of 2 here]	4.7		
NCC1C2CCC(CC2)C1c1ccc(Cl)cc1 (stereo in doubt; 5c) [listing 1 of 2 here]		71.4 nM	375 nM
NCC1C2CCC(CC2)C1c1ccc(Cl)cc1 (stereo in doubt; 5c) [listing 2 of 2 here]	5.2		
NCC1C2CCC(CC2)C1c1ccc(Cl)c(Cl)c1 (stereo in doubt; 5d) [listing 1 of 2 here]		37.5 nM	97.5 nM
NCC1C2CCC(CC2)C1c1ccc(Cl)c(Cl)c1 (stereo in doubt; 5d) [listing 2 of 2 here]	2.6		
CN(C)CC1C2CCC(CC2)C1c1ccccc1 (stereo in doubt; 6a) [listing 1 of 2 here]		191 nM	840 nM
CN(C)CC1C2CCC(CC2)C1c1ccccc1 (stereo in doubt; 6a) [listing 2 of 2 here]	4.4		
CN(C)CC1C2CCC(CC2)C1c1cccc(Cl)c1 (stereo in doubt; 6b) [listing 1 of 2 here]		36.8 nM	186 nM
CN(C)CC1C2CCC(CC2)C1c1cccc(Cl)c1 (stereo in doubt; 6b) [listing 2 of 2 here]	5.1		
CN(C)CC1C2CCC(CC2)C1c1ccc(Cl)c(Cl)c1 (stereo in doubt; 6d) [listing 1 of 2 here]		21.3 nM	56.3 nM
CN(C)CC1C2CCC(CC2)C1c1ccc(Cl)c(Cl)c1 (stereo in doubt; 6d) [listing 2 of 2 here]	2.6		
NCC1C2CCC(CC2)C1c1ccccc1 (stereo in doubt; 7a) [listing 1 of 2 here]		270 nM	1480 nM
NCC1C2CCC(CC2)C1c1ccccc1 (stereo in doubt; 7a) [listing 2 of 2 here]	5.5		
NCC1C2CCC(CC2)C1c1cccc(Cl)c1 (stereo in doubt; 7b) [listing 1 of 2 here]		117 nM	430 nM
NCC1C2CCC(CC2)C1c1cccc(Cl)c1 (stereo in doubt; 7b) [listing 2 of 2 here]	3.7		
NCC1C2CCC(CC2)C1c1ccc(Cl)cc1 (stereo in doubt; 7c) [listing 1 of 2 here]		12.9 nM	68.3 nM
NCC1C2CCC(CC2)C1c1ccc(Cl)cc1 (stereo in doubt; 7c) [listing 2 of 2 here]	5.3		
NCC1C2CCC(CC2)C1c1ccc(Cl)c(Cl)c1 (stereo in doubt; 7d) [listing 1 of 2 here]		21.5 nM	34 nM
NCC1C2CCC(CC2)C1c1ccc(Cl)c(Cl)c1 (stereo in doubt; 7d) [listing 2 of 2 here]	1.6		
CN(C)CC1C2CCC(CC2)C1c1ccccc1 (stereo in doubt; 8a) [listing 1 of 2 here]		313 nM	980 nM

SMILES	Discrimination ratio [1]	IC50 [2]	IC50 [3]
CN(C)CC1C2CCC(CC2)C1c1ccccc1 (stereo in doubt; 8a) [listing 2 of 2 here]	3.1		
CN(C)CC1C2CCC(CC2)C1c1cccc(Cl)c1 (stereo in doubt; 8b) [listing 1 of 2 here]		86 nM	283 nM
CN(C)CC1C2CCC(CC2)C1c1cccc(Cl)c1 (stereo in doubt; 8b) [listing 2 of 2 here]	3.3		
CN(C)CC1C2CCC(CC2)C1c1ccc(Cl)c(Cl)c1 (stereo in doubt; 8d) [listing 1 of 2 here]		14.2 nM	29.3 nM
CN(C)CC1C2CCC(CC2)C1c1ccc(Cl)c(Cl)c1 (stereo in doubt; 8d) [listing 2 of 2 here]	2.1		
NCC1C2CCC(C2)C1c1ccccc1 (stereo in doubt; 9a) [listing 1 of 2 here]		340 nM	2220 nM
NCC1C2CCC(C2)C1c1ccccc1 (stereo in doubt; 9a) [listing 2 of 2 here]	6.5		
NCC1C2CCC(C2)C1c1cccc(Cl)c1 (stereo in doubt; 9b) [listing 1 of 2 here]		149 nM	758 nM
NCC1C2CCC(C2)C1c1cccc(Cl)c1 (stereo in doubt; 9b) [listing 2 of 2 here]	5.1		
NCC1C2CCC(C2)C1c1ccc(Cl)cc1 (stereo in doubt; 9c) [listing 1 of 2 here]		46 nM	230 nM
NCC1C2CCC(C2)C1c1ccc(Cl)cc1 (stereo in doubt; 9c) [listing 2 of 2 here]	5		
NCC1C2CCC(C2)C1c1ccc(Cl)c(Cl)c1 (stereo in doubt; 9d) [listing 1 of 2 here]		11.6 nM	58 nM
NCC1C2CCC(C2)C1c1ccc(Cl)c(Cl)c1 (stereo in doubt; 9d) [listing 2 of 2 here]	5		
COc1ccccc1C1C2CCC(C2)C1CN (stereo in doubt; 9e) [listing 1 of 2 here]		11600 nM	36600 nM
COc1ccccc1C1C2CCC(C2)C1CN (stereo in doubt; 9e) [listing 2 of 2 here]	3.1		
COc1cccc(C2C3CCC(C3)C2CN)c1 (stereo in doubt; 9f) [listing 1 of 2 here]		8820 nM	29300 nM
COc1cccc(C2C3CCC(C3)C2CN)c1 (stereo in doubt; 9f) [listing 2 of 2 here]	3.3		
COc1ccc(C2C3CCC(C3)C2CN)cc1 (stereo in doubt; 9g) [listing 1 of 2 here]		1160 nM	5550 nM
COc1ccc(C2C3CCC(C3)C2CN)cc1 (stereo in doubt; 9g) [listing 2 of 2 here]	4.8		
CN(C)CC1C2CCC(C2)C1c1ccccc1 (stereo in doubt; 10a) [listing 1 of 2 here]		515 nM	1100 nM
CN(C)CC1C2CCC(C2)C1c1ccccc1 (stereo in doubt; 10a) [listing 2 of 2 here]	2.1		
NCC1C2CCC(C2)C1c1ccccc1 (stereo in doubt; 11a) [listing 1 of 2 here]		2900 nM	8850 nM
NCC1C2CCC(C2)C1c1ccccc1 (stereo in doubt; 11a) [listing 2 of 2 here]	3.1		
NCC1C2CCC(C2)C1c1cccc(Cl)c1 (stereo in doubt; 11b) [listing 1 of 2 here]		239 nM	780 nM
NCC1C2CCC(C2)C1c1cccc(Cl)c1 (stereo in doubt; 11b) [listing 2 of 2 here]	3.3		
NCC1C2CCC(C2)C1c1ccc(Cl)cc1 (stereo in doubt; 11c) [listing 1 of 2 here]		207 nM	593 nM

SMILES	Discrimination ratio [1]	IC50 [2]	IC50 [3]
NCC1C2CCC(C2)C1c1ccc(Cl)cc1 (stereo in doubt; 11c) [listing 2 of 2 here]	2.9		
NCC1C2CCC(C2)C1c1ccc(Cl)c(Cl)c1 (stereo in doubt; 11d) [listing 1 of 2 here]		32.7 nM	93.6 nM
NCC1C2CCC(C2)C1c1ccc(Cl)c(Cl)c1 (stereo in doubt; 11d) [listing 2 of 2 here]	2.9		
COc1ccccc1C1C2CCC(C2)C1CN (stereo in doubt; 11e) [listing 1 of 2 here]		1480 nM	7860 nM
COc1ccccc1C1C2CCC(C2)C1CN (stereo in doubt; 11e) [listing 2 of 2 here]	5.3		
COc1cccc(C2C3CCC(C3)C2CN)c1 (stereo in doubt; 11f) [listing 1 of 2 here]		2010 nM	6560 nM
COc1cccc(C2C3CCC(C3)C2CN)c1 (stereo in doubt; 11f) [listing 2 of 2 here]	3.3		
COc1ccc(C2C3CCC(C3)C2CN)cc1 (stereo in doubt; 11g) [listing 1 of 2 here]		1700 nM	7120 nM
COc1ccc(C2C3CCC(C3)C2CN)cc1 (stereo in doubt; 11g) [listing 2 of 2 here]	4.2		
CN(C)CC1C2CCC(C2)C1c1ccccc1 (stereo in doubt; 12a) [listing 1 of 2 here]		2510 nM	4330 nM
CN(C)CC1C2CCC(C2)C1c1ccccc1 (stereo in doubt; 12a) [listing 2 of 2 here]	1.7		
NCC1C2CCC(C2)C1c1ccccc1 (stereo in doubt; 13a) [listing 1 of 2 here]		816 nM	3500 nM
NCC1C2CCC(C2)C1c1ccccc1 (stereo in doubt; 13a) [listing 2 of 2 here]	4.3		
NCC1C2CCC(C2)C1c1ccc(Cl)cc1 (stereo in doubt; 13c) [listing 1 of 2 here]		65.3 nM	348 nM
NCC1C2CCC(C2)C1c1ccc(Cl)cc1 (stereo in doubt; 13c) [listing 2 of 2 here]	5.3		
NCC1C2CCC(C2)C1c1ccc(Cl)c(Cl)c1 (stereo in doubt; 13d) [listing 1 of 2 here]		21.3 nM	98.7 nM
NCC1C2CCC(C2)C1c1ccc(Cl)c(Cl)c1 (stereo in doubt; 13d) [listing 2 of 2 here]	4.6		
COc1ccc(C2C3CCC(C3)C2CN)cc1 (stereo in doubt; 13g) [listing 1 of 2 here]		495 nM	2260 nM
COc1ccc(C2C3CCC(C3)C2CN)cc1 (stereo in doubt; 13g) [listing 2 of 2 here]	4.6		
CN(C)CC1C2CCC(C2)C1c1ccccc1 (stereo in doubt; 14a) [listing 1 of 2 here]		2140 nM	2750 nM
CN(C)CC1C2CCC(C2)C1c1ccccc1 (stereo in doubt; 14a) [listing 2 of 2 here]	1.3		
NCC1C2CCC(C2)C1c1ccccc1 (stereo in doubt; 15a) [listing 1 of 2 here]		251 nM	875 nM
NCC1C2CCC(C2)C1c1ccccc1 (stereo in doubt; 15a) [listing 2 of 2 here]	3.5		
NCC1C2CCC(C2)C1c1ccc(Cl)cc1 (stereo in doubt; 15c) [listing 1 of 2 here]		7.7 nM	34.9 nM
NCC1C2CCC(C2)C1c1ccc(Cl)cc1 (stereo in doubt; 15c) [listing 2 of 2 here]	4.5		
